Laboratory results: ChEMBL document CHEMBL2429779, “Synthesis and anti-inflammatory activity of three nitro chalcones” (Bioorg Med Chem Lett, 2013)
The source made the active and inactive calls. No cut-off for these calls is given here.

How the values were obtained:
Rattus norvegicus [1] = experiment: Antiinflammatory activity in Wistar rat assessed as protection against carrageenan-induced paw edema at 200 mg/kg, ip measured after 2 hrs by pletismometric analysis relative to vehicle-treated control; format: functional; conditions: route intraperitoneal
Rattus norvegicus [2] = experiment: Antiinflammatory activity in Wistar rat assessed as protection against carrageenan-induced paw edema at 200 mg/kg, po by pletismometric analysis; format: functional, organism-based; set-up: dose 200 mg/kg; conditions: TDE = time-dependent effect
Rattus norvegicus [3] = experiment: Antiinflammatory activity in Wistar rat assessed as protection against carrageenan-induced paw edema at 200 mg/kg, po after 1 hr by pletismometric analysis relative to vehicle-treated control; format: functional
Rattus norvegicus [4] = experiment: Antiinflammatory activity in Wistar rat assessed as protection against carrageenan-induced paw edema at 200 mg/kg, ip measured after 3 to 7 hrs by pletismometric analysis relative to vehicle-treated control; format: functional, organism-based; set-up: dose 200 mg/kg
Rattus norvegicus [5] = experiment: Antiinflammatory activity in Wistar rat assessed as protection against carrageenan-induced paw edema at 200 mg/kg, po after 2 to 7 hrs by pletismometric analysis relative to vehicle-treated control; format: functional, organism-based; set-up: dose 200 mg/kg
Rattus norvegicus [6] = experiment: Antiinflammatory activity in Wistar rat assessed as protection against carrageenan-induced paw edema at 200 mg/kg, ip by pletismometric analysis; format: functional, organism-based; set-up: dose 200 mg/kg; conditions: TDE = time-dependent effect
Rattus norvegicus [7] = experiment: Antiinflammatory activity in Wistar rat assessed as protection against carrageenan-induced paw edema at 200 mg/kg, po after 2 hrs by pletismometric analysis relative to vehicle-treated control; format: functional
[8] = Solubility of the compound in water; format: physicochemical; conditions: buffer
[9] = Solubility of the compound in DMSO; format: physicochemical
Rattus norvegicus [10] = experiment: Antiinflammatory activity in Wistar rat assessed as protection against carrageenan-induced paw edema at 200 mg/kg, ip measured after 1 hr by pletismometric analysis relative to vehicle-treated control; format: functional; conditions: route intraperitoneal
Rattus norvegicus [11] = experiment: Antiinflammatory activity in Wistar rat assessed as protection against carrageenan-induced paw edema at 200 mg/kg, po after 7 hrs by pletismometric analysis relative to vehicle-treated control; format: functional
Rattus norvegicus [12] = experiment: Antiinflammatory activity in Wistar rat assessed as protection against carrageenan-induced paw edema at 200 mg/kg, ip measured after 2 to 7 hrs by pletismometric analysis; format: functional, organism-based; set-up: dose 200 mg/kg
Rattus norvegicus [13] = experiment: Antiinflammatory activity in Wistar rat assessed as protection against carrageenan-induced paw edema at 200 mg/kg, po after 3 to 7 hrs by pletismometric analysis relative to vehicle-treated control; format: functional, organism-based; set-up: dose 200 mg/kg
Rattus norvegicus [14] = experiment: Antiinflammatory activity in Wistar rat assessed as protection against carrageenan-induced paw edema at 10 mg/kg, po after 3 to 7 hrs by pletismometric analysis relative to vehicle-treated control; format: functional
Rattus norvegicus [15] = experiment: Antiinflammatory activity in Wistar rat assessed as protection against carrageenan-induced paw edema at 10 mg/kg, po after 2 hrs by pletismometric analysis relative to vehicle-treated control; format: functional
Rattus norvegicus [16] = experiment: Antiinflammatory activity in Wistar rat assessed as protection against carrageenan-induced paw edema at 200 mg/kg, po after 3 hrs by pletismometric analysis relative to vehicle-treated control; format: functional
Rattus norvegicus [17] = experiment: Antiinflammatory activity in Wistar rat assessed as protection against carrageenan-induced paw edema at 200 mg/kg, ip measured after 2 to 7 hrs by pletismometric analysis relative to vehicle-treated control; format: functional; conditions: route intraperitoneal
Rattus norvegicus [18] = experiment: Antiinflammatory activity in Wistar rat assessed as protection against carrageenan-induced paw edema at 200 mg/kg, po after 4 to 7 hrs by pletismometric analysis relative to vehicle-treated control; format: functional

| solubility [8] | solubility [9] | Structure (SMILES) | %max (Rattus norvegicus [1]) | Activity (Rattus norvegicus [2]) | %max (Rattus norvegicus [3]) | Activity (Rattus norvegicus [4]) | Activity (Rattus norvegicus [5]) | Activity (Rattus norvegicus [6]) | Activity (Rattus norvegicus [7]) | %max (Rattus norvegicus [10]) | Activity (Rattus norvegicus [11]) | Activity (Rattus norvegicus [12]) | %max (Rattus norvegicus [7]) | Activity (Rattus norvegicus [13]) | Activity (Rattus norvegicus [14]) | %max (Rattus norvegicus [15]) | %max (Rattus norvegicus [16]) | Activity (Rattus norvegicus [17]) | Activity (Rattus norvegicus [18]) |
| --- | --- | --- | --- | --- | --- | --- | --- | --- | --- | --- | --- | --- | --- | --- | --- | --- | --- | --- | --- |
| Insoluble | soluble | O=C(/C=C/c1ccccc1)c1ccc([N+](=O)[O-])cc1 | 43.2% | tde | 38% | Active | Active | tde | 20% |  |  |  |  |  |  |  |  |  |  |
| Insoluble | soluble | O=C(/C=C/c1ccccc1)c1cccc([N+](=O)[O-])c1 |  | tde |  |  |  | tde |  | 68% | 0% | Active | 31% | inactive |  |  |  |  |  |
|  |  | Cc1cnc(NC(=O)C2=C(O)c3ccccc3S(=O)(=O)N2C)s1 [MELOXICAM] |  |  |  |  |  |  |  |  |  |  |  |  | 50% | 59.3% |  |  |  |
| Insoluble | soluble | O=C(/C=C/c1ccccc1)c1ccccc1[N+](=O)[O-] |  | tde |  |  |  | tde |  | 58.2% |  |  |  |  |  |  | 34.8% | 50% | 30% |
